Measured values reported in PubChem BioAssay (NCI).
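Growth conditions: 96-well plates. Treatment: test compound, 48 hours, 5 concentrations. Analysis: linear interpolation between bracketing concentrations; unreached endpoints set to highest concentration. TGI is the concentration that stops growth completely.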

Assays:
Experiment in all cases: DTP human tumour cell line panel, 48 h
[1] = test system: DU-145 prostate
[2] = test system: HCC-2998 colon
[3] = test system: HS 578T breast
[4] = test system: M14 melanoma
[5] = test system: MDA-MB-231 breast
[6] = test system: NCI-H522 lung
[7] = test system: OVCAR-8 ovarian
[8] = test system: SF-539 CNS
[9] = test system: SR leukemia
[10] = test system: SNB-78 CNS
[11] = test system: XF 498 CNS

SMILES	TGI [1] [µM]	TGI [2] [µM]	TGI [3] [µM]	TGI [4] [µM]	TGI [5] [µM]	TGI [6] [µM]	TGI [7] [µM]	TGI [8] [µM]	TGI [9] [µM]	TGI [10] [µM]	TGI [11] [µM]
CCOC(=O)C1CCC(=O)N1C(=O)c1ccc(Cl)cc1 (stereo not given)	> 100	> 100	> 100	> 100	> 100	> 100	> 100	> 100	> 100	–	–
C(=C\c1c2oc(-c3ccccc3)cc(-c3ccccc3)c-2c2ccccc12)/C=C1\c2ccccc2-c2c(-c3ccccc3)cc(-c3ccccc3)[o+]c21	–	> 100	–	> 100	–	> 100	> 100	> 100	> 100	> 100	> 100
O=C(c1ccccc1)c1cc(Cl)ccc1NCn1nnc2ccccc21	–	> 100	–	> 100	–	> 100	> 100	> 100	> 100	–	> 100
CC(=O)N[C@@H](Cc1ccc(O)cn1)C(=O)NC1CCCCC1	> 100	> 100	> 100	> 100	> 100	> 100	> 100	> 100	> 100	–	–
COc1ccc(/C(CC2OC(=O)c3ccccc32)=N\NC(N)=O)cc1 (stereo not given)	> 100	> 100	> 100	> 100	> 100	> 100	> 100	> 100	> 100	–	–
Cc1ccc(NCCN(C)C)c2c(=O)c3cc(O)ccc3sc12	15.6	10.4	3.87	10.4	4.6	11.1	6.84	10.4	4.79	33.7	17.2
Cc1cc(C)nc(NS(=O)(=O)c2ccc(Nc3c4ccccc4nc4ccc(C(=O)Nc5ccc(S(=O)(=O)N=C(N)N)cc5)cc34)cc2)n1	> 100	> 100	> 100	> 100	> 100	> 100	> 100	> 100	> 100	–	–
COC(=O)C(NC(=O)c1ccccc1)C(c1c(O)cc(O)cc1O)P(=O)(OC)OC (stereo not given)	–	> 100	–	> 100	–	> 100	> 100	> 100	> 100	–	> 100
CCCCCCCCCCCCC1N=C(N)N2CCCC2=C1C(=O)OC (stereo not given)	21.4	3.25	4.17	3.16	4.38	3.26	3.37	13.2	> 100	–	–
N#CC(NNC(=O)c1ccccc1O)c1c(O)ccc2ccccc12 (stereo not given)	18.4	> 100	> 86.2	30	27.7	18.7	25.9	23.1	40.8	> 100	–
CCOC(=O)C1C(c2ccc(OC)cc2)c2c([nH]n(-c3ccccc3)c2=O)CC1(C)O (stereo not given)	> 100	> 100	> 100	> 100	> 100	> 100	> 100	> 100	> 100	–	–
O=C1c2ccccc2C(=O)c2sc(Nc3cc(Cl)ccc3Cl)nc21	24.6	20.7	> 72.3	> 42.6	5.56	18.3	14.2	13.4	> 100	–	–
CCCCCCCCCCCCC1N=C(N)NC2(CCCO2)C1C(=O)OC (stereo not given)	33.2	> 39.5	8.89	16.6	13.3	9.7	23.3	15.8	> 20.9	–	–
CC(C)=CCc1c2c(c(O)c3c(=O)c4c(oc13)-c1ccc(O)cc1OC4C=C(C)C)C=CC(C)(C)O2 (stereo not given)	27.5	11	17.2	35.4	28	26.9	28.8	32.8	16	–	–
Cn1c(NC(=O)NC23CC4CC(CC(C4)C2)C3)nc2ccccc21	–	> 100	–	> 100	–	> 100	> 100	> 100	> 100	97	–
CC(NNC(=O)c1ccncc1)c1ccc(Cl)cc1Cl (stereo not given)	> 100	> 100	> 100	> 100	> 100	> 100	> 100	> 100	> 100	–	–
